In patent publication US5908868A, “Retinol derivatives useful for enhancing immune response” (priority 1995, dated 1999):
“Also recorded” adds a separate entry of the source.

Tests used:
lymphoblastoid 5/2 cells = test: Conversion of 13,14DHR to 14HRR by lymphoblastoid cells; assay type: in vitro ADME, human; details: 10^-6 M, 1 and 2 hours, ITLB
Description: FIGS. 25A through 25D. 13,14DHR can be converted to 14HRR by lymphoblastoid cells. 200,000 5/2 cells/ml were incubated with or without 10^-6 M 13,14DHR added in serum-free ITLB medium. After 1 and 2 hours, cells pellets corresponding to 10 ml of culture were delipidated and the corresponding lipid fractions separated on an analytical C18 reversed-phase column according to FIG. 20. Peaks were identified according to their retention times and their UV absorption patterns.
Lymphoblastoid 5/2 cells devoid of retinol were cultured in the presence or absence of 10^-6 M 13,14DHR for 1 and 2 hours in ITLB medium. The retinoids extracted from the cell pellets were separated by HPLC according to FIG. 20. […] There was no 14HRR measurable in control cultures.

5/2 cells = test: Growth (DNA synthesis, [3H]thymidine) of lymphoblastoid 5/2 cells in serum-free medium; assay type: cell-based, human; details: ITLB medium without retinol
Description: Washed 5/2 cells (5,000/well) were incubated for 72 hours in HB101 medium with the indicated amounts of retinoids. DNA synthesis was measured by [^3 H] thymidine uptake. The measurements were done in triplicate. The SDs were <15%.
In FIGS. 4B to 4D, 5/2 cells were washed twice and seeded at a concentration of 150,000 cells/ml in HB 101 medium. Triplicate samples of 100 μl of cell suspension were removed daily and pulsed for 6 hours with [^3 H] thymidine. Means are shown. The SDs were never >20%.
P3 was purified as described in the Experimental Details section. 5/2 cells (5,000/well) were incubated for 72 hours in HB101 medium and refed with the indicated amount of retinoid daily. DNA synthesis was measured by [^3 H]-thymidine uptake. P3 is bioactive down to a concentration of 10-^8 M (FIG. 8). […] This is due either to chemical instability or to a more rapid metabolic degradation of P3 by the cells.
The assay was done in 96-well microtiter plates in a final volume of 200 ul/well. The cells were cultured for 72 hours and cell growth determined by [^3 H] thymidine (0.8 μCi/well)labeling for the last 16 hours. Retinoids were added at the indicated concentrations at the initiation of culture and every 24 hours thereafter.
The human EBV-transformed B-cell line 5/2 was established from the peripheral blood of a healthy donor. The cell line was grown in RPMI 1640 supplemented with 8% fetal calf serum, L-glutamine (2 mM), and antibiotics. The cell line was tested regularly for mycoplasma infections and was consistently negative.
The assay system is a modification of the assay developed by Blazar et al. (12). […] Assays were done in 96 well microtiter plates in a final volume of 200 μl/well or in 25 cm^2 tissue culture flasks. The cells in the microtiter plates were cultured for 72 hours and cell growth was determined by labeling for the last 16 hours with 0.8 μCi/well of [^3 H]thymidine (sp. act. 6.7 Ci/mmol). Growth in the culture flasks was determined in three aliquots of 100 μl taken at 24 hours intervals and cultured in the presence of 0.8 μCi of [^3 H]thymidine for an additional 6 hour period. To determine the viable cell number, nine aliquots per time point were differentially counted in a Neubauer chamber in the presence of trypan blue.
5/2 cells were grown in the absence of retinol in a medium containing the basic RPMI 1640 amino acid/salt mixture, insulin (5 μg/ml), transferrin (5 μg/ml), albumin (0.1%) and linoleic acid (10^-6 M) (ITLB). […] The dose-response curve shown in FIG. 26 indicates an effective concentration of 10^-7 M.

T cells = test: T cell activation/proliferation; assay type: cell-based, murine; details: with mitogen/anti-CD3
Description: They were seeded into 96-well flat-bottom plates at varying cellular densities in a final volume of 100 μl. In control experiments, cells were cultured in medium containing 10% FCS or 3% human serum and 5×10^-5 M 2 ME. […] Cultures were carried out in duplicate. Plates were incubated at 37° C. in a humidified 5% CO2 atmosphere. Cellular proliferation was determined by [^3 H] thymidine uptake (0.5 uCi/well; New England Nuclear, Boston, Mass.) after the incubation times indicated for each experiment with a 4 hour labeling pulse. Cells were harvested onto glass filter and [^3 H]TdR incorporation was determined by liquid scintillation counting. The data presented are the means of duplicate or six replicate cultures. The restriction to duplicate measurements was necessary to conserve scarce 14HRR. […] Each experiment was repeated at least twice.

[1] = test system: lymphoblastoid cells (LCL); details: serum-free medium; cited from earlier work
lymph node T cells = test: Proliferation of anti-CD3 activated lymph node T cells; assay type: cell-based, BALB/c mouse
From the text: Growth curves of lymph node T cells depleted of antigen-presenting cells (FIG. 17A) with and without 10^-6 M retinol at 2×10^5 and 5×10^4 cells/well. (FIG. 17B) Dose-responses elicited by different retinoids in cultures of lymph node T cells depleted of antigen-presenting cells. Also shown are the growth curves of CD4^+ (FIG. 17C) and CD8^+ T lymphocytes (FIG. 17D) in the presence of either retinol, 14HRR, human serum or in their absence.
T lymphocytes, purified as described, 5×10^4 well, were activated with immobilized anti-CD3 antibody in ITLB medium. The indicated amounts of retinoids or human serum were added at initiation of cultures. […] 14HRR was added every 12 hours. DNA synthesis was measured by a 4 hour pulse with tritiated thymidine. SDs were ≤17%.
Mature T cells were obtained from pooled intestinal, axillary, inguinal and submandibular lymph nodes of 4 to 10-week-old BALB/c mice. To fractionate cells into CD4 and CD8 subsets and at the same time remove APC, a combination of adherence and complement lysis was used as follows:
Cells were cultured in serum-free medium, referred to as ITLB, containing RPMI 1640 supplemented with 8×10^-7 M insulin (5 μg/ml), 7×10^-8 M transferrin (5 μg/ml), 2×10^-6 M linoleic acid, 2×10^-6 M delipidated BSA (0.12 mg/ml), 2 mM L-glutamine, 1 mM sodium pyruvate and antibiotics. They were seeded into 96-well flat-bottom plates at varying cellular densities in a final volume of 100 μl. In control experiments, cells were cultured in medium containing 10% FCS or 3% human serum and 5×10^-5 M 2 ME. T cells and thymocytes were activated with immobilized, purified anti-mab CD3e or by the addition of Con A in the presence or absence of different concentrations of retinoids. Unless indicated otherwise, retinoids were replenished every 12 hours to maintain a reasonably constant concentration of these labile compounds in culture. The optimal concentration for stimulation of T cells was determined for each batch of anti-CD3 mAb and Con A. The optimal range of Con A was particularly narrow in serum-free medium (0.5-0.2 μg/ml) and varied with the cell density used. […] Cultures were carried out in duplicate. Plates were incubated at 37° C. in a humidified 5% CO2 atmosphere. Cellular proliferation was determined by [^3 H] thymidine uptake (0.5 uCi/well; New England Nuclear, Boston, Mass.) after the incubation times indicated for each experiment with a 4 hour labeling pulse. Cells were harvested onto glass filter and [^3 H]TdR incorporation was determined by liquid scintillation counting. The data presented are the means of duplicate or six replicate cultures. The restriction to duplicate measurements was necessary to conserve scarce 14HRR. They were within 20% of each other. Each experiment was repeated at least twice.

Row | SMILES | conversion to 14HRR (lymphoblastoid 5/2 cells) | restoration of capacity to proliferate (5/2 cells) | substitution for retinol in T cell activation (T cells) | substitution for retinol in T cell activation (T cells; listed as 13,14 DHR) | support of growth of LCL [1] | stimulatory activity at 10^-5 M (lymph node T cells; 10^-5 M) | stimulation of lymph node T cells (lymph node T cells; anti-CD3) | substitution for retinol in T cell activation (T cells; listed as retinoic acid)
1 | CC(C=CC1=C(C)CCCC1(C)C)=CC=CC(C)(O)C(O)CO (stereo not drawn) [13,14DHR, 13,14-dihydroxy-retinol] | produced 14HRR | proliferation was restored as well | can effectively substitute for retinol | capable of being used in lieu of retinol |  |  |  | 
2 | CC1=C(/C=C/C(C)=C/C=C/C(C)=C/C(=O)O)C(C)(C)CCC1 [all-trans retinoic acid] |  |  | not |  | not | very modest stimulatory activity | nearly inert | cannot be satisfied; also recorded: neither respond to externally provided retinoic acid
